Measurements: US20080300298A1, “Honokiol Derivates For the Treatment of Proliferative Disorders” (priority 2005, published 2008)

Experiments:
SU-DHL-4 cells = test: induction of apoptosis; assay type: cell-based; conditions: cells resistant to doxorubicin and As2O3-induced apoptosis; without activation of caspase 3
Description: However, in contrast to the complete block of As2O3-induced apoptosis by z-VAD-fmk, inhibition of HNK-induced apoptosis by z-VAD-fmk was only partial, evidenced by PARP cleavage and APO2.7 assay (FIGS. 7B and D).
HNK induces apoptosis in SU-DHL4 cells, which express low levels of caspase-8 and -3 and are resistant to doxorubicin, As2O3, melphalan, dexamethasone, bortezomib (Chauhan et al. Cancer Res. 2003; 63:6174-6177), and revlimid. Therefore, agents such as HNK which kill MM cells via both caspase-dependent and caspase-independent pathways may be particularly useful to overcome drug resistance.

HIF-1a in PC3 cells = test: HIF-1a induction; assay type: cell-based, human; conditions: normoxia or hypoxia
Experimental: Bharti, A. C. et al (2004) Blood 103, 3175-3184; Arbiser, J. L et al (1998) Mol. Med. 4, 376-383; Woods, A. et al (2003) Current Biology 13, 2004-2008; Shaw, R. J. et al (2004) PNAS 101, 3329-3335; Buzzai, M. et al (2005) Oncogene 24, 4165-4173). […] PC3 cells were treated with honokiol in normoxia (left) or hypoxia (right). In both cases, HIF-1a induction is dose dependent, and in the case of hypoxia, at least additive.

KBM-5 cells = test: Live and dead assay; assay type: cell-based, human; conditions: KBM-5, TNF 1 nM with honokiol (10 mM printed); TNF alone 5%
Experimental: (D) depicts that honokiol enhances TNF-induced cell death.
Live and dead assay. The Live and Dead assay (Molecular Probes), which determines intracellular esterase activity and plasma membrane integrity, was used to measure apoptosis. […] It also uses the […] (red fluorescence), which can enter cells only through damaged membranes and bind to nucleic acids but is excluded by the intact plasma membrane of live cells. Briefly, 1×10^5 cells were incubated with […] honokiol for 24 h and then treated with 1 nM TNF for 16 h at 37° C. Cells were stained with the Live and Dead reagent (5 mM ethidium homodimer, 5 mM calcein-AM) and then incubated at 37° C. for 30 min. Cells were analyzed under a fluorescence microscope (Labophot-2, Nikon, Tokyo, Japan).
By using caspase-activated PARP cleavage, it was shown that the enhanced cytotoxicity was due to apoptosis. TNF-induced PARP cleavage was enhanced in the honokiol-treated cells (FIG. 26C).

MCF-7 cells = test: Cell cycle assay (PI); assay type: cell-based; conditions: 24 hours (control 26%)
Experimental: (§1) Cell cycle assays: 5×10^6 cells were cultured in the appropriate culture media containing 10% FCS, and treated with either control vehicle or various concentrations of HNK as indicated for 24 h. Following treatment, the cells were harvested, fixed in methanol and stained with propidium iodide (PI, Abcam, Cambridge, Mass.). Flow cytometry was performed at the Flow Cytometry Core facility of Cedars-Sinai Medical Center, using FACScan (Becton Dickinson, Franklin Lakes, N.J.).
(§2) HNK slows cell cycle in breast cancer cell lines. The effects of HNK (10 μM or 30 μM HNK for 24 hours) on cell cycle were evaluated in MCF-7 and MDA-MB-231 cells. These doses of HNK are less than the LC50 for both cell lines. […] Expression of proteins involved in G1 cell-cycle regulation (massgue) was examined in MDA-MB-231 cells using Western analysis.

MDA-MB-231 cells = test: Cell cycle assay (PI); assay type: cell-based; conditions: 24 hours (control 26%)
Experimental: as §1, §2

[1] = test system: cyclin D1, p27Kip1, p21Cip1/WAF1, EGFR, AKT, ERK2 in MDA-MB-231 cells; test: Western blot of cell cycle and growth signaling proteins; assay type: cell-based; conditions: MDA-MB-231, 20, 40 and 60 μM, 24 hours
Experimental: Western blot analysis: Cells were harvested and lysed for total protein extraction in a buffer containing 50 mM Tris-Cl pH 7.4, 150 mM NaCl and 2% NP-40 together with a protease inhibitor cocktail (Comp). Approximately 50-150 μg of protein extract was loaded on a 4-15% polyacrylamide gels (Bio-Rad, Hercules, Calif.), separated electrophoretically and blotted from the gel onto PVDF membrane. The membranes were then blocked with a blocking buffer (5% non-fat dry milk in 1×TBST, i.e. 20 mM Tris-HCl, pH 7.6 containing 0.8% NaCl and 0.1% Tween-20) at room temperature for 1 h. The membranes were incubated with the primary antibodies in blocking buffer, followed by incubation with HRP-labeled secondary antibodies. Immunoactivity was detected with horseradish peroxidase-conjugated secondary antibody and visualized by Enhanced Chemiluminescence (Pierce, Rockford, Ill.). Quantification of the results was performed using AlphaImager 2000 (Alpha Innotech, San Leandro, Calif.).
as §2
HNK inhibits growth signaling pathways. […]

For C=CCc1ccc(O)c(-c2ccc(O)c(CC=C)c2)c1 [HNK, Honokiol], the “apoptosis in SU-DHL-4 cells” value (SU-DHL-4 cells) was “induced apoptosis in SU-DHL-4 cells”, the HIF-1a induction (HIF-1a in PC3 cells) was “activated HIF-1a in prostate cancer cells in a dose dependent manner” and the “TNF-induced apoptosis (Live/Dead assay)” value (KBM-5 cells) was 65%. The “cells in S-phase” value (MCF-7 cells; MCF-7, 10 μM) was 20%, the “cells in S-phase” value (MCF-7 cells; MCF-7, 30 μM) was 20% and the “cells in S-phase” value (MDA-MB-231 cells; MDA-MB-231, 10 μM) was 15%. For the same molecule, the “cells in S-phase” value (MDA-MB-231 cells; MDA-MB-231, 30 μM) was 10% and the “expression of G1 cell-cycle regulation proteins” value [1] was “reduced the levels of cyclin D1, and upregulated expression of the cyclin-dependent kinase inhibitors, p27Kip1 and p21Cip1/WAF1”.
